Assay results: patent publication US12612424B2, “HPK1 inhibitors and uses thereof” (Regor Pharmaceuticals, Inc., priority 2019, dated 2026)

Test system: Human Pan T Cell (IL-2 release)
Assay: IL2 released by human pan T cell upon anti-CD3/anti-CD28 stimulation (ELISA)
Type: cell-based
Conditions: human pan T cells; for maximal fold induction / EC (2-fold response): 48 h; for maximal fold induction / IL-2 Max Fold Response: response of IL-2 over DMSO control, anti-CD3/anti-CD28, 48 hours, ELISA; for maximal fold induction: read-out: IL-2 Max Fold Response; for EC50: IL-2 response, calculated with GraphPad Prism; for EC (2-fold response) / EC2x (nM): concentration of compound that gives 200% IL-2 response (2 folds) over DMSO control
Excerpt: For example, Example 5 describes such a functional assay for determining the effect of an HPK1 inhibitor on IL-2 & IFN-γ release upon stimulation of Pan T cells. The secreted IL-2 & IFN-γ can be measured/quantified by standard ELISA assay. Briefly, pan T cells can be isolated from peripheral blood (PB) mononuclear cells (MNCs), or PBMC, using commercially available kits, such as MACS (Miltenyl Biotec) Pan T isolation kit (Cat. No. 130-096-535). Primary human pan-T cells include CD4 and CD8 T cells as well as some gamma/delta T cell subsets. The pan-T cells can be isolated using the negative immunomagnetic separation technique without the use of columns.
Isolated pan-T cells can be dispensed into 96-well plates at 100,000 cells/well, and stimulated with immobilized anti-CD3 antibody and soluable anti-CD28 antibody, or PMA/Ionomycin as the positive control (or culture media as the negative control). Different concentrations of test compounds can be added to the cells to assess the compound effect on cytokine secretion following TCR-stimulation/CD28 co-stimulation. Stimulated cells are incubated for 2 more days, before the supernatant (containing secreted cytokines by pan-T cells) is collected from each well for ELISA assay and quantitation of IL-2 and IFN-γ.
Biology Example 8 Compound Efficacy Study on IL2 & IFN-γ Released by Human Pan T Cell
This example is an assay method that can be used to determine compound effects on IL2 & IFN-γ release using pan T cells and ELISA assay format.
3. Procedures Procedures for Pan T isolation and Reagent preparation (Day 0): 1. Cell Growth Medium: • RPMI1640: ATCC, Cat #30-2001 • 10% FBS: Gibco, Cat #10099141 • 1% Pen-Strep: Gibco, Cat #15140122 • 1% Non-essential amino: Gibco, Cat #11140050 • Beta-Mercaptoethanol: Gibco, Cat #21985023 2. Pan T Isolation Buffer Preparation:
Prepare a solution containing phosphate-buffered saline (PBS), pH 7.2, 0.5% bovine serum albumin (BSA), and 2 mM EDTA by diluting MACS® BSA Stock Solution (#130-091-376) 20 times with autoMACS® Rinsing Solution. Keep buffer at 4° C. Degas buffer before use, as air bubbles could block the column.
3. Thawing of Frozen PBMC • 1) Pre-heat medium at 37° C. water bath. • 2) Rapidly thaw cells in 37° C. water bath. • 3) Add the pre-warmed medium into 15 mL tube. Transfer cells to the tube. • 4) 300×g centrifuge for 8 min. (centrifuge increase 0, decrease 0). • 5) Wash the PBMC using Rinsing buffer. • 6) Centrifuge PBMC at 300×g for 8 min, wash it twice (centrifuge increase 9, decrease 1). • 7) Resuspend the cells with Pan T cells isolation buffer and count cells number. 4. Pan T Cells Isolation: Cell Staining with Microbead Cocktail • 1) Prepare cells and determine cell number. Filter cells by 70 μm cell strainer. • 2) Resuspend cell pellet in 40 μL of buffer per 10^7 total cells. • 3) Add 10 μL of Pan T Cell Biotin-Antibody Cocktail per 10^7 total cells. • 4) Mix well and incubate for 10 minutes in the refrigerator (ice). • 5) Add 30 μL of buffer per 10^7 total cells. • 6) Add 20 μL of Pan T Cell MicroBead Cocktail per 10^7 total cells. • 7) Mix well and incubate for 15 minutes in the refrigerator (ice). • 8) Proceed to subsequent magnetic cell separation. • Note: a. Work fast, keep cells cold, and use pre-cooled solutions (2-8° C.). b. Volumes for magnetic labeling given are for up to 10′ total cells. When working with fewer cells, use the same volumes as indicated. c. When working with higher cell numbers, scale up all reagent volumes and total volumes accordingly. d. For optimal performance it is important to obtain a single-cell suspension before magnetic labeling. Subsequent Manual Cell Separation: • 1) Place LS Column in the magnetic field of a suitable MACS Separator. For details refer to the respective MACS Column data sheet. • 2) Prepare column by rinsing with 3 mL of buffer. • 3) Apply cell suspension onto the column. Collect flow-through, which represents the enriched T cells. • 4) Wash column with 5 mL of buffer. […]

Row | SMILES | EC50 (Homo sapiens, T-cell) | EC50 | maximal fold induction (Homo sapiens, T-cell) | EC (2-fold response) (Homo sapiens, T-cell) | EC2x (nM) | IL-2 Max Fold Response
1 | COc1cc2c(cc1Nc1ncc(Cl)c(-n3cc(CC(=O)OC(C)C)c4ccccc43)n1)CN(C)CC2 [Example 130, Isopropyl 2-(1-(5-chloro-2-((6-methoxy-2-methyl-1,2,3,4-tetrahydroisoquinolin-7-yl)amino)pyrimidin-4-yl)-1H-indol-3-yl)acetate] | – | – | < 2 | – | – | –
2 | COc1cc2c(cc1Nc1ncc(Cl)c(N3CCc4ccc(C(F)F)cc43)n1)CN(C)CC2 [Example 91, N-(5-chloro-4-(6-(difluoromethyl)indolin-1-yl)pyrimidin-2-yl)-6-methoxy-2-methyl-1,2,3,4-tetrahydroisoquinolin-7-amine] | – | – | < 2 | – | – | –
3 | CONC(=O)C1CN(c2nc(Nc3cc4c(cc3OC)CCN(C)C4)ncc2Cl)c2ccccc21 (centres unmarked) [Example 103, 1-(5-Chloro-2-((6-methoxy-2-methyl-1,2,3,4-tetrahydroisoquinolin-7-yl)amino)pyrimidin-4-yl)-N-methoxyindoline-3-carboxamide] | – | – | < 2 | – | – | –
4 | COc1cc2c(cc1Nc1ncc(Cl)c(-n3cnc4ccccc43)n1)CN(C)CC2 [Example 9, N-(4-(1H-benzo[d]imidazol-1-yl)-5-chloropyrimidin-2-yl)-6-methoxy-2-methyl-1,2,3,4-tetrahydroisoquinolin-7-amine] | 0.1 to 0.5 µM | – | > 2 | – | ++ (“++”, for higher values than “+++” but less than or equal to 1 μM) | –
5 | COc1cc2c(cc1Nc1ncc(Cl)c(N3CC(C)(C(N)=O)c4ccccc43)n1)CN(C)CC2 (centres unmarked) [Example 120, 1-(5-Chloro-2-((6-methoxy-2-methyl-1,2,3,4-tetrahydroisoquinolin-7-yl)amino)pyrimidin-4-yl)-3-methylindoline-3-carboxamide] | – | – | < 2 | – | – | –
6 | COc1ccc2c(c1)N(c1nc(Nc3cc4c(cc3OC)CCN(C)C4)ncc1Cl)CC2C(=O)O (centres unmarked) [Example 107, 1-(5-Chloro-2-((6-methoxy-2-methyl-1,2,3,4-tetrahydroisoquinolin-7-yl)amino)pyrimidin-4-yl)-6-methoxyindoline-3-carboxylic acid] | – | – | < 2 | – | – | –
7 | COc1cc2c(cc1Nc1ncc(Cl)c(-n3ccc4ccccc43)n1)CN(C)CC2 [Example 2, N-(5-chloro-4-(1H-indol-1-yl)pyrimidin-2-yl)-6-methoxy-2-methyl-1,2,3,4-tetrahydroisoquinolin-7-amine] | – | – | < 2 | – | – | –
8 | COc1cc2c(cc1Nc1ncc(Cl)c(N3CCc4cc(C(F)F)ccc43)n1)CN(C)CC2 [Example 90, N-(5-chloro-4-(5-(difluoromethyl)indolin-1-yl)pyrimidin-2-yl)-6-methoxy-2-methyl-1,2,3,4-tetrahydroisoquinolin-7-amine] | > 1 µM | – | < 2 | – | – | –
9 | COc1cc2c(cc1Nc1ncc(Cl)c(N3CC(CO)c4ccccc43)n1)CN(C)CC2 (centres unmarked) [Example 87] | 0.1 to 0.5 µM | – | < 2 | – | – | –
10 | CN1CCc2ccc(Nc3ncc(Cl)c(N4CCc5ccccc54)n3)cc2C1 [Example 14, N-(5-Chloro-4-(indolin-1-yl)pyrimidin-2-yl)-2-methyl-1,2,3,4-tetrahydroisoquinolin-7-amine] | – | – | < 2 | – | – | –

Now from value to compound, other results behind:

Row | EC50 (Homo sapiens, T-cell) | EC50 | SMILES | maximal fold induction (Homo sapiens, T-cell) | EC (2-fold response) (Homo sapiens, T-cell) | EC2x (nM) | IL-2 Max Fold Response
11 | 0.1 to 0.5 µM | – | COc1cc2c(cc1Nc1ncc(Cl)c(-n3cc(C(C)C(=O)O)c4ccccc43)n1)CN(C)CC2 (centres unmarked) [Example 142] | < 2 | – | – | –
12 | ≤ 0.1 µM | – | COc1cc2c(cc1Nc1ncc(Cl)c(-n3cc(CC(=O)O)c4ccc(F)cc43)n1)CN(C)CC2 [Example 139] | > 2 | ≤ 0.1 µM | – | –
13 | 0.1 to 0.5 µM | – | CNC(=O)C1CN(c2nc(Nc3cc4c(cc3OC)CCN(C)C4)ncc2Cl)c2ccccc21 (centres unmarked) [Example 97, 1-(5-Chloro-2-((6-methoxy-2-methyl-1,2,3,4-tetrahydroisoquinolin-7-yl)amino)pyrimidin-4-yl)-N-methylindoline-3-carboxamide] | > 2 | – | ++ (“++”, for higher values than “+++” but less than or equal to 1 μM) | –
14 | > 1 µM | – | COc1cc2c(cc1Nc1ncc(Cl)c(-c3cn(CC(=O)O)c4ccccc34)n1)CN(C)CC2 [Example 161] | > 2 | – | + (“+”, for greater than 1 μM) | –
15 | ≤ 0.1 µM | – | COc1cc2c(cc1Nc1ncc(Cl)c(N3CC(C)(CC(=O)O)c4ccccc43)n1)CN(C)CC2 (centres unmarked) [Example 146] | > 2 | ≤ 0.1 µM | – | –
16 | – | ≤ 0.1 µM | COc1cc2c(cc1Nc1ncc(Cl)c(N3CC(C)(CC(=O)O)c4ccccc43)n1)CN(C)CC2 (single isomer, unassigned) [Example 148] | – | ≤ 0.1 µM | – | >2
17 | 0.1 to 0.5 µM | – | COc1cc2c(cc1Nc1ncc(Cl)c(N3CC(C(=O)O)c4cc(F)ccc43)n1)CN(C)CC2 (centres unmarked) [Example 104] | > 2 | 0.1 to 0.5 µM | – | –
18 | 0.1 to 0.5 µM | – | COc1cc2c(cc1Nc1ncc(Cl)c(-n3cc(CC(=O)O)c4ccccc43)n1)CN(C)CC2 [Example 129] | > 2 | 0.1 to 0.5 µM | – | –
19 | ≤ 0.1 µM | – | COc1cc2c(cc1Nc1ncc(Cl)c(N3CC(C(=O)O)c4ccc(F)cc43)n1)CN(C)CC2 (centres unmarked) [Example 105] | > 2 | 0.1 to 0.5 µM | – | –
20 | ≤ 0.1 µM | – | COc1cc2c(cc1Nc1ncc(Cl)c(N3CC(C)(CC(=O)O)c4ccc(F)cc43)n1)CN(C)CC2 (single isomer, unassigned) [Example 152] | > 2 | ≤ 0.1 µM | – | –
21 | – | 0.5 to 1 µM | COc1cc2c(cc1Nc1ncc(Cl)c(N3CC(C)(CC(=O)O)c4ccccc43)n1)CN(C)CC2 (single isomer, unassigned) [Example 147] | < 2 | – | – | –
22 | ≤ 0.1 µM | – | COc1cc2c(cc1Nc1ncc(Cl)c(N3CC(C)(C(=O)O)c4cc(F)ccc43)n1)CN(C)CC2 (centres unmarked) [Example 125] | > 2 | ≤ 0.1 µM | – | –
23 | > 1 µM | – | COc1cc2c(cc1Nc1ncc(Cl)c(N3CC(C(=O)O)c4c(OC)cccc43)n1)CN(C)CC2 (centres unmarked) [Example 108, 1-(5-Chloro-2-((6-methoxy-2-methyl-1,2,3,4-tetrahydroisoquinolin-7-yl)amino)pyrimidin-4-yl)-4-methoxyindoline-3-carboxylic acid] | < 2 | – | – | –
24 | – | 0.1 to 0.5 µM | COc1cc2c(cc1Nc1ncc(Cl)c(N3CC(C)(CC(=O)O)c4ccc(F)cc43)n1)CN(C)CC2 (single isomer, unassigned) [Example 153] | – | – | +++ (“+++”, for higher values than “++++” but less than or equal to 500 nM) | >2
25 | ≤ 0.1 µM | – | COc1cc2c(cc1Nc1ncc(Cl)c(N3CC(C)(CC(=O)O)c4ccc(F)cc43)n1)CN(C)CC2 (centres unmarked) [Example 151] | > 2 | ≤ 0.1 µM | – | –
